According to ChEMBL document CHEMBL1201862, “PubChem BioAssay data set” (2004):
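Exposure lasted 48 hours, with cells grown in 96-well plates and compounds tested at five concentrations. GI50 marks 50% less growth.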 The source made the active and inactive calls. No stated cut-off is given here; in the data, active = GI50 up to about 1.1 µM and inactive = higher.

Experiments:
Assay in all cases: DTP human tumour cell line panel, 48 h
OVCAR-5 = tested on: OVCAR-5
KM12 = tested on: KM12
LOX IMVI = tested on: LOX IMVI
UACC-257 = tested on: UACC-257
M14 = tested on: M14
OVCAR-3 = tested on: OVCAR-3
SF-539 = tested on: SF-539
ACHN = tested on: ACHN
UO-31 = tested on: UO-31
HCT-15 = tested on: HCT-15
M19-MEL = tested on: M19-MEL
SNB-75 = tested on: SNB-75
HL-60 = tested on: HL-60
OVCAR-4 = tested on: OVCAR-4
SK-MEL-5 = tested on: SK-MEL-5
DMS-114 = tested on: DMS-114
U-251 = tested on: U-251
NCI-H522 = tested on: NCI-H522
DU-145 = tested on: DU-145
NCI/ADR-RES = tested on: NCI/ADR-RES

Row | Structure (SMILES) | GI50 (OVCAR-5) | GI50 (KM12) | GI50 (LOX IMVI) | GI50 (UACC-257) | GI50 (M14) | GI50 (OVCAR-3) | GI50 (SF-539) | GI50 (ACHN) | GI50 (UO-31) | GI50 (HCT-15) | GI50 (M19-MEL) | GI50 (SNB-75) | GI50 (HL-60) | GI50 (OVCAR-4) | GI50 (SK-MEL-5) | GI50 (DMS-114) | GI50 (U-251) | GI50 (NCI-H522) | GI50 (DU-145) | GI50 (NCI/ADR-RES)
1 | CC1CC(=O)C(CC(=O)O)C1C(C(=O)C(=O)Nc1c(C#N)cccc1[N+](=O)[O-])[N+](=O)[O-] (stereo not drawn) | > 100 µM (inactive) | > 100 µM (inactive) | > 100 µM (inactive) | > 100 µM (inactive) | > 100 µM (inactive) | > 100 µM (inactive) | > 100 µM (inactive) | > 100 µM (inactive) | 57.3 µM (inactive) | > 100 µM | > 100 µM (inactive) | > 100 µM (inactive) | > 100 µM (inactive) | > 100 µM (inactive) | > 100 µM (inactive) | > 100 µM (inactive) | > 100 µM (inactive) | – | – | –
2 | Cc1cc2c(cc1C)NC1=C(O)C(c3c[nH]c4ccc(COc5ccccc5)cc34)OC1=N2 (stereo not drawn) | > 100 µM (inactive) | > 100 µM (inactive) | > 100 µM (inactive) | 50 µM (inactive) | > 100 µM (inactive) | > 100 µM (inactive) | 27.4 µM (inactive) | 45.7 µM (inactive) | 79.8 µM (inactive) | > 100 µM | – | 14.9 µM (inactive) | > 100 µM (inactive) | > 100 µM (inactive) | > 100 µM (inactive) | – | 34.4 µM (inactive) | > 100 µM (inactive) | > 100 µM (inactive) | > 100 µM (inactive)
3 | Cn1c(=S)c2nc(SCc3cccnc3)[nH]c2n(C)c1=O | > 100 µM (inactive) | > 100 µM (inactive) | > 100 µM (inactive) | > 100 µM (inactive) | > 100 µM (inactive) | > 100 µM (inactive) | > 100 µM (inactive) | > 100 µM (inactive) | > 100 µM (inactive) | > 100 µM | – | 96.8 µM (inactive) | > 100 µM (inactive) | > 100 µM (inactive) | > 100 µM (inactive) | – | > 100 µM (inactive) | 82 µM (inactive) | > 100 µM (inactive) | > 100 µM (inactive)
4 | CC[C@@H]1CC[C@@H]2[C@H](CC[C@]3(C)[C@@H](O)CC[C@@H]23)[C@H]1CO | > 100 µM (inactive) | > 100 µM (inactive) | > 100 µM (inactive) | > 100 µM (inactive) | > 100 µM (inactive) | > 100 µM (inactive) | > 100 µM (inactive) | > 100 µM (inactive) | > 100 µM (inactive) | > 100 µM | – | 75.9 µM (inactive) | 23.3 µM (inactive) | 71 µM (inactive) | 31.3 µM (inactive) | – | > 100 µM (inactive) | 44.6 µM (inactive) | > 100 µM (inactive) | 91.4 µM (inactive)
5 | COC(=O)C(=O)C(C(=O)C(=O)Nc1ccc(F)cc1)c1nc2ccc([N+](=O)[O-])cc2nc1O (stereo not drawn) | > 100 µM (inactive) | > 100 µM (inactive) | > 100 µM (inactive) | > 100 µM (inactive) | > 100 µM (inactive) | > 100 µM (inactive) | > 100 µM (inactive) | – | > 100 µM (inactive) | > 100 µM | > 100 µM (inactive) | > 100 µM (inactive) | > 100 µM (inactive) | > 100 µM (inactive) | > 100 µM (inactive) | – | > 100 µM (inactive) | > 100 µM (inactive) | – | –
6 | Nc1nc(Cl)cc(NCC2(CO)CCC(Cc3ccccc3)C2)n1 (stereo not drawn) | 33.3 µM (inactive) | 20.2 µM (inactive) | 8.59 µM (inactive) | 2.78 µM (inactive) | 18.7 µM (inactive) | 43.1 µM (inactive) | 29 µM (inactive) | 20 µM (inactive) | 38.3 µM (inactive) | 27.4 µM | – | 33.6 µM (inactive) | 2.69 µM (inactive) | 13.6 µM (inactive) | 0.671 µM (active) | – | 25.6 µM (inactive) | 10.1 µM (inactive) | 27.8 µM (inactive) | 20.3 µM (inactive)
7 | COc1ccc(/C=C2\CCC/C(=C\c3ccc(O)c(CN4CCCCC4)c3)C2=O)cc1 | 22.5 µM (inactive) | 2.3 µM (inactive) | 2.82 µM (inactive) | 4.76 µM (inactive) | 4.06 µM (inactive) | 10.8 µM (inactive) | 3.08 µM (inactive) | 10.3 µM (inactive) | 6.75 µM (inactive) | 3.52 µM | – | 12.6 µM (inactive) | 6.93 µM (inactive) | 22.2 µM (inactive) | 4.25 µM (inactive) | – | 4.06 µM (inactive) | 2.96 µM (inactive) | 9.02 µM (inactive) | 2.77 µM (inactive)
8 | COc1cc(/C=C2\[C@H]3c4c(c(OC)c(C)c(OC)c4OC)C[C@@H](C(=O)N2Cc2ccccc2)N3C(=O)OC(C)C)c(OC)c(C)c1OC | > 100 µM (inactive) | 66.8 µM (inactive) | > 100 µM (inactive) | 34 µM (inactive) | > 100 µM (inactive) | 67.3 µM (inactive) | > 100 µM (inactive) | > 100 µM (inactive) | 66.7 µM (inactive) | – | – | > 100 µM (inactive) | 19.8 µM (inactive) | 69.3 µM (inactive) | 48.4 µM (inactive) | 47.5 µM (inactive) | 53.1 µM (inactive) | 27.5 µM (inactive) | – | –
9 | O=C1c2ccc(O)c(O)c2C(=O)c2c(O)ccc(O)c21 [QUINALIZARIN] | 28.4 µM (inactive) | 30.9 µM (inactive) | 18.2 µM (inactive) | 20.5 µM (inactive) | 21.5 µM (inactive) | 20.3 µM (inactive) | 21.4 µM (inactive) | 23 µM (inactive) | 21.3 µM (inactive) | 25.7 µM | 33.9 µM (inactive) | > 10 µM (inactive) | – | 2.1 µM (inactive) | – | 15.9 µM (inactive) | 34.2 µM (inactive) | 1.45 µM (inactive) | – | –
10 | C/C=C(/C)C(=O)O[C@H]1[C@H]2[C@@H]([C@@H](OC(C)=O)[C@H](C)C(=O)[C@@]34C[C@@H](C)C(=O)[C@]3(/C=C(\C)[C@H]1OC(C)=O)O4)C2(C)C | 3.94 µM (inactive) | 5.58 µM (inactive) | 3.09 µM (inactive) | 4.09 µM (inactive) | 2.47 µM (inactive) | 3.95 µM (inactive) | 3.1 µM (inactive) | 3.8 µM (inactive) | 3.85 µM (inactive) | 3 µM | – | 4.98 µM (inactive) | 0.305 µM (active) | 4.9 µM (inactive) | 3.64 µM (inactive) | – | 5.7 µM (inactive) | 3.28 µM (inactive) | 1.66 µM (inactive) | 4.12 µM (inactive)
11 | c1ccc2c(c1)CC1c3[nH]c4ccccc4c3CCN21 (stereo not drawn) | > 10 µM (inactive) | > 10 µM (inactive) | > 10 µM (inactive) | > 10 µM (inactive) | > 10 µM (inactive) | > 10 µM (inactive) | > 10 µM (inactive) | > 10 µM (inactive) | > 10 µM (inactive) | > 10 µM | – | > 10 µM (inactive) | > 10 µM (inactive) | > 10 µM (inactive) | > 10 µM (inactive) | – | > 10 µM (inactive) | > 10 µM (inactive) | > 10 µM (inactive) | > 10 µM (inactive)
12 | COc1cc(/C=N/N=C(\N)NO)cc(Cl)c1O | 35.3 µM (inactive) | 78 µM (inactive) | 31 µM (inactive) | 73.8 µM (inactive) | 33.4 µM (inactive) | 70.3 µM (inactive) | 34.4 µM (inactive) | 34.4 µM (inactive) | 23.9 µM (inactive) | 66.8 µM | 27.8 µM (inactive) | – | – | 76.9 µM (inactive) | 33.4 µM (inactive) | 34.2 µM (inactive) | 48.9 µM (inactive) | > 100 µM (inactive) | – | –
13 | O=C1NN=C2C=C(c3ccc(Cl)cc3)CC(c3cccc(Br)c3)C12 (stereo not drawn) | > 100 µM (inactive) | > 100 µM (inactive) | 46.9 µM (inactive) | 22.4 µM (inactive) | > 100 µM (inactive) | 42.1 µM (inactive) | > 100 µM (inactive) | 33.7 µM (inactive) | 42.8 µM (inactive) | 19.3 µM | – | 80.9 µM (inactive) | 42 µM (inactive) | > 100 µM (inactive) | > 100 µM (inactive) | – | 59.2 µM (inactive) | 38.4 µM (inactive) | 41.8 µM (inactive) | > 100 µM (inactive)
14 | CC(c1ccccc1)C(O)S(=O)(=O)O (stereo not drawn) | > 100 µM (inactive) | > 100 µM (inactive) | 36.8 µM (inactive) | > 100 µM (inactive) | > 100 µM (inactive) | > 100 µM (inactive) | > 100 µM (inactive) | > 100 µM (inactive) | > 100 µM (inactive) | > 100 µM | > 100 µM (inactive) | 43.7 µM (inactive) | – | > 100 µM (inactive) | – | 98.9 µM (inactive) | > 100 µM (inactive) | > 100 µM (inactive) | – | –
15 | O=P1(Cc2ccccc2)c2ccccc2-c2ccccc21 | 12.1 µM (inactive) | 1.08 µM (active) | 4.74 µM (inactive) | 1.86 µM (inactive) | 3.67 µM (inactive) | 1.06 µM (active) | 6.21 µM (inactive) | 11.2 µM (inactive) | 20.6 µM (inactive) | 37.2 µM | – | 4.75 µM (inactive) | 1.04 µM (active) | 11 µM (inactive) | 1.46 µM (inactive) | – | 3.88 µM (inactive) | 1.87 µM (inactive) | 7.38 µM (inactive) | > 100 µM (inactive)
16 | Cc1cc([N+](=O)[O-])ccc1NC(=O)C(=O)C(C(=O)c1ccccc1-c1ccccc1)C1OC(=O)c2ccccc21 (stereo not drawn) | 15.4 µM (inactive) | 15 µM (inactive) | – | 25.4 µM (inactive) | 14 µM (inactive) | – | 9.02 µM (inactive) | 31.3 µM (inactive) | 16.6 µM (inactive) | 15.1 µM | 12.9 µM (inactive) | – | – | 26.2 µM (inactive) | 15 µM (inactive) | 13.1 µM (inactive) | 12.5 µM (inactive) | 12.9 µM (inactive) | – | –
